US20140093555A1, “PATCH PREPARATION CONTAINING AMINE OXIDE” (Nitto Denko Corporation, priority 2012, published 2014)

System: skin isolated from a hairless mouse
Assay: Skin permeability test (patch on isolated hairless mouse skin, permeation cell, PBS(-) receptor, HPLC)
Assay type: in vitro ADME
Conditions: statement in words, Tables 3 and 4
Description: To examine transdermal absorbability of the drug, the obtained patch preparation was subjected to a skin permeability test.
A patch preparation was cut into a circle having a diameter of 6 mmφ, adhered to the stratum corneum side of a skin isolated from a hairless mouse, mounted on a cell for skin permeation experiment (effective area 9 mmφ) such that the dermic layer side was a receptor phase, and a skin permeation experiment was conducted. As a receptor solution, a deaerated PBS(−) solution (phosphate buffered saline) was used.

skin permeability of the drug: low skin permeability
SMILES: CCOC(=O)C1=C(COCCN)NC(C)=C(C(=O)OC)C1c1ccccc1Cl (stereo not shown) [amlodipine besilate]
